According to article PMC6708471 (Cell calcium, 2019):

Tests used:
calmodulin (CaM) [1] = biological target: T1, calmodulin (CaM) (Homo sapiens, UniProt P0DP25); experiment: X-ray crystal structure; type: biochemical
calmodulin (CaM) [2] = biological target: T1, calmodulin (CaM); experiment: […]-1H HSQC NMR titration; type: binding

EC50 (calmodulin (CaM) [1]) [µM] | SMILES | 15N-1H HSQC NMR titration (intermediate exchange, modest affinity) (calmodulin (CaM) [2])
5.1 ± 1.4 | COc1ccc(S(=O)(=O)N(CCO)c2ccccc2CN(C)C/C=C/c2ccc(Cl)cc2)cc1 [KN93] | –
– | COc1ccc(S(=O)(=O)Nc2ccccc2CN(C)C/C=C/c2ccc(Cl)cc2)cc1 [KN92] | We found that KN92 also affects the CaM NMR spectrum as many of the cross peaks disappear.
